The source of these data is article PMC4383003, “Transfer hydrogenation catalysis in cells as a new approach to anticancer drug design” (Nature Communications, 2015).

The test system of series [1] is A2780 ovarian cancer cells. The series can be described thus: Ruthenium accumulation in cancer cells (ICP-MS). The settings on record: for Cell Ru: A2780, 1/3 x IC50, 24 h drug exposure, no recovery time; for Cell accum.: A2780, 24 h, 1/3 x IC50. In kind it is cell-based, human. The protocol:
Briefly, 1.5 × 10^6 cells per well were seeded on a six-well plate. […] After this time, cells were washed, treated with trypsin-EDTA, counted and cell pellets were collected. Each pellet was digested overnight in concentrated nitric acid (73%) at 353 K; the resulting solutions were diluted using double-distilled water to give a final concentration of 5% HNO3 and the amount of Ru taken up by the cells was determined by ICP–MS. […]
Supplementary Table 3: Antiproliferative activity of complexes 1-8 in A2780 ovarian cancer cells and their cellular accumulation (expressed as ng Ru per million cells).
The latter experiments were carried out using equipotent concentrations of the […]
experiments were performed as duplicates of triplicates in independent experiments and the error bars were calculated as the standard deviation from the mean. […]

The subject of series [2] is A2780 human ovarian cancer cells. Put plainly: In vitro growth inhibition assay (SRB), A2780. Type of series: cell-based. The protocol:
A2780 human ovarian carcinoma and MRC5 human fetal lung fibroblasts were obtained from the European Collection of Cell Cultures. Both cell lines were grown in Roswell Park Memorial Institute medium (RPMI-1640) supplemented with 10% of fetal calf serum, 1% of 2 mM glutamine and 1% penicillin/streptomycin. All cells were grown as adherent monolayers at 310 K in a 5% CO2-humidified atmosphere and passaged at ca. 70–80% confluency.
The antiproliferative activity of complexes 1–8 was determined in A2780 ovarian cancer cells and MRC5 fibroblasts. Briefly, 96-well plates were used to seed 5,000 cells per well. The plates were left to pre-incubate with drug-free medium at 310 K for 48 h before adding different concentrations of the compounds to be tested. A drug exposure period of 24 h was allowed. After this, supernatants were removed by suction and each well was washed with PBS. A further 72 h were allowed for the cells to recover in drug-free medium at 310 K. The sulforhodamine B (SRB) assay was used to determine cell viability. IC50 values, as the concentration that causes 50% cell death, were determined as duplicates of triplicates in two independent sets of experiments and their s.d. were calculated.

For series [3], the system named is A2780 ovarian cancer cells. The series can be described thus: Cell viability on co-administration of Ru complexes (1/3 x IC50) with formate or acetate. Type of series: cell-based, human. The conditions noted are these: for Cell viability / Cell viability percentages: A2780, complex 1/3 x IC50, 24 h. The method, then:
Cell viability assays were carried out with complexes 1–8 in A2780 ovarian cancer cells. These experiments were carried out as described above with the following modifications: a fixed concentration of each Ru complex equal to 1/3 × IC50 was used in co-administration with three different concentrations of sodium formate or sodium acetate (0.5, 1.0 and 2.0 mM). To prepare the stock solution of the drug, the complex was dissolved in 5% dimethylsulfoxide and diluted in a 1:1 mixture of 0.9% saline:cell culture medium. This stock was further diluted using RPMI-1640 until working concentrations were achieved. Separately, stock solutions of sodium formate or sodium acetate were prepared in saline. The complex and formate were added to each well independently, but within 5 min of each other.
Supplementary Table 7: Percent cell viability of A2780 ovarian cancer cells exposed to equipotent concentrations of ruthenium complexes 1-3 and 5-8 (1/3 x […]
The experiments included 48 h of pre-incubation and 72 h of drug recovery, both in drug-free medium at 310 K in a 5% CO2 humidified atmosphere. All the experiments were performed as duplicates of triplicates in independent experiments and the error bars were calculated as the standard deviation from the mean.
Supplementary Table 11: Cell viability (%) of A2780 ovarian cancer cells exposed […]
administered with different concentrations of sodium acetate (0, 0.5, 1 and 2 mM).
The experiments involved 48 h of pre-incubation and 72 h of drug recovery, both in […]
Cell viability percentages (%)
Complex Acetate concentration (mM)

The next series deals with calf thymus DNA. The series can be described thus: Interaction with calf thymus DNA (ethanol precipitation, ICP-MS of Ru). In kind it is binding. The conditions noted are these: for free Ru in supernatant: CT-DNA, 1:3 complex:base pairs, 310 K. The protocol: Interaction with calf thymus DNA
Complex 2 was chosen as representative of the series. A stock solution of complex 2 (0.7 mM in 5 % acetonitrile/water) was prepared and aliquots of 66 μL were added to a solution of CT-DNA (final ratio 1:3 complex: base pairs-DNA) in water, 2 mM cacodylate buffer and 2 mM NaCl. The reaction mixture was incubated at 310 K, and aliquots of 300 μL were taken at different intervals during a period of 27 h. The DNA was then precipitated by addition of ethanol (700 μL, final concentration 70% v/v). Ru complexes which are strongly bound to CT-DNA will precipitate together with the DNA upon addition of ethanol, and, therefore the ruthenium concentration in the supernatant should decrease. However, no changes in the Ru concentration were detected by ICP-MS showing that the interaction between the complex 2 and DNA is weak (t = 0 h / 64.2 ± 0.7 µM, t = 24 h/ 65.1 ± 0 .3 µM free Ru). In contrast complex 8

Another series relates to CT-DNA. Put plainly: Thermal stability (melting temperature) of CT-DNA by UV-Vis. In kind it is binding, calf. The conditions noted are these: for Tm: CT-DNA, 1:3 complex:base pairs, 2 mM cacodylate pH 7.4, 2 h 310 K. The method, then: Supplementary Table 6: Melting temperature (Tm) of CT-DNA in the presence of 8 or complex 2 (ratio 1:3, complex: base pairs-DNA). The reactions were carried out in cacodylate buffer (2 mM, pH 7.4), and samples incubated for 2 h at 310 K. […]
a variation in melting temperature between free DNA and DNA in the presence of the corresponding complex. * […] from free DNA using a T-test analysis. ** p < 0.01 from free DNA using a T-test analysis […]
Thermal stability of CT-DNA
The melting temperature of CT-DNA in the presence and absence of complex 2 [(p-cym)Ru(TsEn)Cl] was determined by UV-Vis spectroscopy (Supplementary Table 6). Higher melting temperatures indicate increased stabilization of the DNA, which is the effect produced by DNA-intercalators and often by direct metal coordination to […]
the nucleobases.11 Destabilization of DNA can result in a decrease of the melting […]
In the presence of complex 8, the melting temperature of CT-DNA increased In agreement with the literature, 12 by 14 K, in 2 mM NaCl, 2 mM cacodylate buffer.
This increase is due to Ru binding to DNA as well as intercalation. 12 However, upon increasing the chloride concentration by ca. 10x (20 mM NaCl) the melting temperature of CT-DNA in the presence of complex 8, increased only by 7 K. This effect has previously been reported and it is attributed to the partial inhibition of hydrolysis, and, therefore, inhibition of coordination to DNA. 12, 13
Experiments performed in the presence of complex 2, in 2 mM cacodylate buffer and […]
NaCl, no decrease of the melting temperature was observed. […]

[4] abbreviates: A2780, 24 h drug exposure, no formate.

SMILES strings stand for the structures. Where “and” joins values, the source holds several entries; their conditions need not be identical. Identical values can stand only once.

A word on the IC50: it is the concentration at which inhibition is half-maximal. A high value points to weaker potency in that assay. Regarding `CS(=O)(=O)[N-]CCN.[Cl-].[Ru+2].c1ccc(-c2ccccc2-c2ccccc2)cc1` [Complex 5, [(o-terp)Ru(MsEn)Cl]], the “Cell Ru” value in series [1] was found to be 2.8 ± 0.3 ng x 106 cells. In addition, in series [1], the Cell accum. is given as 2.8 ng Ru/10^6 cells. The 50% inhibitory concentration (IC50) in series [2] (A2780, Supplementary Table 3) is 12.4 ± 0.9 µM. Besides, the Cell viability in series [3] (formate 0 mM) came out at 73.59 ± 0.04%; in series [3] (formate 0.5 mM) it was 71.9 ± 0.4%; in series [3] (formate 1 mM) it was 44.2 ± 0.2%; in series [3] (formate 2 mM), 5.8 ± 0.6%.

Regarding `Cc1ccc(S(=O)(=O)[N-]CCN)cc1.[Cl-].[Ru+2].c1ccc(-c2ccccc2-c2ccccc2)cc1` [Complex 6, [(o-terp)Ru(TsEn)Cl]], the “Cell Ru” value in series [1] amounted to 2.1 ± 0.4 ng x 106 cells. The molecule also had a concentration for half-maximal inhibition (IC50) in series [2] (A2780, Supplementary Table 3) of 15.8 ± 0.8 µM. Further, the Cell viability in series [3] (formate 0 mM) amounted to 72.8 ± 0.9%; in series [3] (formate 0.5 mM), 59 ± 3%; in series [3] (formate 1 mM) it was 43.6 ± 1.4%; in series [3] (formate 2 mM), 22.2 ± 0.8%.

On to `NCC[N-]S(=O)(=O)c1ccc(C(F)(F)F)cc1.[Cl-].[Ru+2].c1ccc(-c2ccccc2-c2ccccc2)cc1` [Complex 7, [(o-terp)Ru(TfEn)Cl]], for which the “Cell Ru” value in series [1] is 2.4 ± 0.3 ng x 106 cells. Further, the Cell accum. in series [1] came to 2.4 ng Ru/10^6 cells. Further, the IC50 in series [2] (A2780, Supplementary Table 3) was 21.2 ± 0.1 µM. In addition, the Cell viability was found to be 40 ± 2% in series [3] (formate 0 mM), 20.8 ± 0.6% in series [3] (formate 0.5 mM), 11.9 ± 0.6% in series [3] (formate 1 mM) and 2.5 ± 0.7% in series [3] (formate 2 mM). The “decrease in cell survival” value in series [3] (A2780, formate increased from 0 to 2 mM) was “ca. 16 fold”.

The ΔTm is the change in melting temperature against a reference sample. In the case of `NCCN.[Cl-].[Ru+2].c1ccc(-c2ccccc2)cc1` [Complex 8, [(bip)Ru(en)Cl]^+, reference compound], the figures for the “free Ru in supernatant” value in the series with calf thymus DNA (t = 0 h) and in the series on calf thymus DNA (t = 24 h) were 58.3 ± 0.3 µM and 48.5 ± 0.6 µM, respectively. The “binding to calf thymus DNA” value with calf thymus DNA (ICP-MS of Ru, up to 27 h at 310 K, 1:3 complex:DNA base pairs, 2 mM cacodylate pH 7.4, 2 mM NaCl) is on record as “bind strongly”. The “increase of melting temperature of CT-DNA” value in the series with CT-DNA (2 mM NaCl, 2 mM cacodylate buffer) is -259 °C; in the series on CT-DNA (20 mM NaCl) it was -266 °C. Moreover, the Tm in the series on CT-DNA (2 mM NaCl) was determined as 63.8 ± 0.8 °C; in the series with CT-DNA (20 mM NaCl) it was 67.1 ± 0.6 °C. The ΔTm in the series on CT-DNA (versus free DNA, 20 mM NaCl) amounted to 7.9 °C. Besides, the 50% inhibitory concentration (IC50) in series [2] (setting [4]) was 2.2 µM; in series [2] (A2780, Supplementary Table 3), 2.17 ± 0.08 µM. Also, the Cell viability percentages turned out to be 75.4 ± 2% in series [3] (acetate 0 mM), 73.1 ± 0.8% in series [3] (acetate 0.5 mM) and 72 ± 1% in series [3] (acetate 1 mM). Also, the Cell viability was 71 ± 1% in series [3] (formate 0.5 mM); 61 ± 1% in series [3] (formate 1 mM); 39 ± 1% and ~39% in series [3] (formate 2 mM).

In series [2] (setting [4]), `N.N.[Cl][Pt][Cl]` [cisplatin, reference compound] came in with an IC50 of 1.2 µM.

In the case of `O=C[O-].[Na+]` [formate, sodium formate], the “toxicity of formate itself to the cells” value in series [3] (A2780, 0 to 2 mM) is listed as “non-toxic”.
